Experimental data as given in PMC7400577 (Scientific Reports, 2020).
Residue numbers refer to the chain shown, from its start. Like-named read-outs stand apart in the source and are kept apart here.

Assays:
[1] = biological target: T1, hGAT3 wt (Homo sapiens, UniProt P48066); assay: [3H]GABA uptake inhibition at wt hGAT3 transiently expressed in tsA201 cells; format: cell-based; details: 30 nM [3H]GABA, transient expression
T1 construct: expressed in transfected cells; host or cells: tsA201 cells, transient (PolyFect), pcDNA5/FRT vector
T1 sequence (P48066 1-632): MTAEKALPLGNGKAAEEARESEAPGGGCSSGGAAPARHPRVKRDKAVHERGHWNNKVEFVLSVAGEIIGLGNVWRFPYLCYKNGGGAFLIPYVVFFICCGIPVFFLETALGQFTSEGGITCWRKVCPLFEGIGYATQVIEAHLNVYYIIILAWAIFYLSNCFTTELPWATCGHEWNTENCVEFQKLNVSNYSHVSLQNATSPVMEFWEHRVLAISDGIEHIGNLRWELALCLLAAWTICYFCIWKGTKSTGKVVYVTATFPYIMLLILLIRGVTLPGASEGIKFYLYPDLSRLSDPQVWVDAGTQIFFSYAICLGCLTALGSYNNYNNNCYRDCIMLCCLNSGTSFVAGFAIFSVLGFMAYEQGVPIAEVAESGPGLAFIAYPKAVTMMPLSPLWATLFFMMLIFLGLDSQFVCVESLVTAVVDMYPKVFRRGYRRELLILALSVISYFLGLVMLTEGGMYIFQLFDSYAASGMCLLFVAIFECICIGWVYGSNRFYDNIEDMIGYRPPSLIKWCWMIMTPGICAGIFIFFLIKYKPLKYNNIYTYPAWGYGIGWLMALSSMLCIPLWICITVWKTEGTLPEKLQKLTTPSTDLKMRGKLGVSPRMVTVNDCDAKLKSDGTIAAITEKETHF

[2] = biological target: T2, hGAT3 L314Q (Homo sapiens, UniProt P48066, L314Q); assay: [3H]GABA uptake inhibition at hGAT3 L314Q transiently expressed in tsA201 cells; format: cell-based; details: 30 nM [3H]GABA, transient expression
T2 construct: expressed in transfected cells; host or cells: tsA201 cells, transient (PolyFect), pcDNA5/FRT vector
T2 sequence (P48066 1-632 L314Q): T1 sequence (P48066 1-632) with L314Q

[3] = system: BGT1; details: competitive BGT1 inhibitor; cited from earlier work

Structure (SMILES)	IC50 ([1]; read-out: IC50 GAT3 wt)	IC50 ([1]; read-out: pIC50 ± S.E.M. GAT3 wt (converted))	IC50 ([2]; read-out: IC50 GAT3 L314Q)	IC50 ([2]; read-out: pIC50 ± S.E.M. GAT3 L314Q (converted))	IC50 [3]
NCCCC(=O)O [GABA, γ-Aminobutyric acid, reference compound]	8.2 µM	7.94 µM	5.2 µM	5.13 µM	
N[C@@]12CC[C@H](C(=O)O)[C@@H]1C2 [compound 1]					0.59 µM
